Experimental data reported in paper PMC9950205, “Efficacy, safety, and pharmacokinetics of teduglutide in adult Japanese patients with short bowel syndrome and intestinal failure: two phase III studies with an extension” (Surgery Today, 2022).

Assays:
[1] = test system: adult Japanese patients with SBS-IF; test: Anti-teduglutide antibodies in blood samples; type: in vivo, human
Method: In TED-C14-004 and SHP633-306, blood samples for PK evaluations were taken pre-dose and at 0.25, 0.5, 1, 2, 3, 4, 6, 8, 10, and 12 h post-dose during the first 12 weeks of treatment with teduglutide. In SHP633-307, patients continuing from study TED-C14-004 had blood samples for PK evaluations taken pre-dose and at […], and 1, 2, 3, 4, 6, 8, 10, and 12 h post-dose at the first extension study visit. Patients continuing from SHP633-306 had blood samples taken pre-dose and 1 and 2 h post-dose at the first extension study visit. Blood samples to test for the presence of antibodies to teduglutide were taken at baseline and weeks 12 and 24 in SHP633-306; ≥ 14 h after dosing at baseline and weeks 12 and 24, and then every 6 months thereafter in TED-C14-004; and every 3 months in SHP633-307.
Safety analyses included the monitoring of adverse events (AEs), body weight, BMI, vital signs, 12-lead electrocardiogram (ECG), serum biochemistry, hematology, and presence of antibodies to teduglutide. AEs were coded using the Medical Dictionary for Regulatory Activities versions 17.1 (TED-C14-004) and 21.0 (SHP633-306 and SHP633-307). Specifically, AEs were treatment-emergent AEs (TEAEs), defined as any unfavorable and unintended sign (including any abnormal laboratory finding), symptom, or disease that occurred during treatment with teduglutide, whether or not the event was considered to be related to the study drug by the clinical study investigator. AEs were also categorized as mild, moderate, or severe. […] AEs were considered related to treatment with teduglutide, or its administration, based on the investigator's medical judgment.

[2] = test system: adult Japanese patients with SBS-IF; test: Plasma citrulline, biomarker of intestinal epithelial mass, change from baseline; type: in vivo, human
Method: Concentrations of plasma citrulline, a biomarker of intestinal epithelial mass, were measured at baseline; weeks 4, 8, 16, and 24; and then every 2 months thereafter up to 30 months of treatment. Patients who continued into SHP633-307 from SHP633-306 had measurements taken at month 12, while those continuing from TED-C14-004 had measurements taken every 3 months.
Efficacy endpoints were defined in an analogous manner to previous pivotal studies. These included a clinically meaningful reduction in weekly PS volume of ≥ 20% [17] measured between baseline and both 20 and 24 weeks for TED-C14-004 and SHP633-306, and a continued reduction in weekly PS volume of ≥ 20% from the baseline in core studies at each scheduled visit until the last visit before the interim data cut-off of SHP633-307. Other efficacy endpoints included changes in absolute and percentage weekly PS volumes from the baseline in the core studies at each study visit, the number of days per week of PS, the number of patients who achieved enteral autonomy at the end of treatment or the data cut-off, and the changes in plasma citrulline levels from baseline in the core studies. The primary efficacy data were derived from patient diaries and compared against investigator-prescribed data captured in electronic case report forms.

[3] = 24 weeks, SHP633-306, n = 6, mean ± SD
[4] = 24 weeks, TED-C14-004, n = 9, mean ± SD
[5] = 30 months, TED-C14-004, n = 7, mean ± SD
[6] = interim cut-off of the extension study, patients from SHP633-306, mean ± SD
[7] = interim data cut-off of SHP633-307, patients from TED-C14-004, up to 57 months, n = 7, mean ± SD

CC[C@H](C)[C@H](NC(=O)[C@H](Cc1ccccc1)NC(=O)[C@H](CC(=O)O)NC(=O)[C@H](CCCNC(=N)N)NC(=O)[C@H](C)NC(=O)[C@H](C)NC(=O)[C@H](CC(C)C)NC(=O)[C@H](CC(N)=O)NC(=O)[C@H](CC(=O)O)NC(=O)[C@H](CC(C)C)NC(=O)[C@@H](NC(=O)[C@@H](NC(=O)[C@H](CC(N)=O)NC(=O)[C@H](CCSC)NC(=O)[C@H](CCC(=O)O)NC(=O)[C@H](CC(=O)O)NC(=O)[C@H](CO)NC(=O)[C@H](Cc1ccccc1)NC(=O)[C@H](CO)NC(=O)CNC(=O)[C@H](CC(=O)O)NC(=O)CNC(=O)[C@@H](N)Cc1c[nH]cn1)[C@@H](C)O)[C@@H](C)CC)C(=O)N[C@@H](CC(N)=O)C(=O)N[C@@H](Cc1c[nH]c2ccccc12)C(=O)N[C@@H](CC(C)C)C(=O)N[C@H](C(=O)N[C@@H](CCC(N)=O)C(=O)N[C@H](C(=O)N[C@@H](CCCCN)C(=O)N[C@H](C(=O)N[C@H](C(=O)N[C@@H](CC(=O)O)C(=O)O)[C@@H](C)O)[C@@H](C)CC)[C@@H](C)O)[C@@H](C)CC [teduglutide]
Patients positive for anti-teduglutide antibodies ([1]; 24 weeks, 5 out of 14 patients (n = 4 TED-C14-004; n = 1 SHP633-306)): 35.7%
Patients with low titers of anti-teduglutide antibodies as well as neutralizing antibodies ([1]; 39 months, patients from TED-C14-004 in SHP633-307, two patients): 40.0%
Anti-teduglutide antibodies ([1]; 51 or 54 months, n = 7): No anti-teduglutide antibodies were detected
Patients positive at 24 weeks who also tested positive up to 22 months ([1]; TED-C14-004): Three of the 4 patients
Association between anti-teduglutide antibodies and a lack of efficacy ([1]; all studies): no association
Patients positive for antibodies to teduglutide ([1]; month 12, SHP633-307 patients from SHP633-306, 2 out of 4): 50.0%
Association of anti-teduglutide antibodies with AEs of hypersensitivity or teduglutide-related hypersensitivity reaction ([1]; patients in whom antibodies were detected): no association
Plasma citrulline increase from baseline [2, 3]: 14.3 ± 10.9 µM
Plasma citrulline percent increase from baseline [2, 3]: 106.3% ± 114.9%
Plasma citrulline increase from baseline [2, 4]: 15.0 ± 17.4 µM
Plasma citrulline percent increase from baseline [2, 4]: 86.9% ± 112.3%
Plasma citrulline increase from baseline [2, 5]: 28.3 ± 24.1 µM
Plasma citrulline percent increase from baseline [2, 5]: 135.0% ± 84.2%
Plasma citrulline increase from baseline [2, 6]: 13.0 ± 5.6 µM
Plasma citrulline percent increase from baseline [2, 6]: 79.1% ± 33.5%
Plasma citrulline increase from baseline [2, 7]: 19.2 ± 18.9 µM
Plasma citrulline percent increase from baseline [2, 7]: 103.6% ± 88.7%
